This is an account of results in US20140330170A1, “Method of Quantifying Cancer Treatment” (Exelixis, Inc., priority 2012, published 2014).

This assay deals with metastatic CRPC patients with bone metastases. Nature of the assay: Adaptive phase 2 trial (NCT00940225): case studies of the first three CRPC patients with bone metastases treated with compound 1. The assay is classed as in vivo, human. An excerpt: All patients provided informed consent before study screening.
The mark [1] stands for this setting: Patient 1, best response, 100 mg dose.
Where [2] appears, read: Patient 2, best response, 100 mg dose.
[3] abbreviates: Patient 3, best response, 100 mg dose.
Where [4] appears, read: three metastatic CRPC patients, summary.

Consider `COc1cc2nccc(Oc3ccc(NC(=O)C4(C(=O)Nc5ccc(F)cc5)CC4)cc3)c2cc1OC` [Compound 1, N-(4-{[6,7-bis(methyloxy)quinolin-4-yl]oxy}phenyl)-N′-(4-fluorophenyl)cyclopropane-1,1-dicarboxamide], for which the PSA runs as follows: (Patient 1, best response, change from baseline 430.4 ng/mL) −78%; (Patient 2, best response, change from baseline 14.7 ng/mL) “+61%”; (Patient 3, best response, change from baseline 2.8 ng/mL) −57%. Also, the Hemoglobin result is, setting by setting: (Patient 1, best response, change from baseline 13.5 g/dL) “+1.4 g/dL”; (Patient 2, best response, change from baseline 13.3 g/dL) “+1.8 g/dL”; (Patient 3, best response, change from baseline 10.2 g/dL) “+2.2 g/dL”. Moreover, the tALP (Patient 1, best response, change from baseline 689 U/L) is −77%; the tALP (Patient 2, best response, change from baseline 108 U/L) is on record as −6%; the tALP (Patient 3, best response, change from baseline 869 U/L) is recorded as −77%. Also, the Pain entry by setting is: under setting [1], “Improvement”; under setting [2], “Pain-free”; under setting [3], “Pain-free”. The Tumor response under setting [1] was −41%, the Tumor response under setting [2] is on record as −20% and the Tumor response under setting [3] is reported as −51%. Also, the Bone scan entry under setting [2] is listed as “Improvement”. Moreover, the soft tissue lesions result (all three patients, during therapy, summary) is “evidence of response or stabilization in soft tissue lesions”. For the setting “all three patients, summary”, the bone pain result is “substantial reductions in bone pain”. Moreover, under “all three patients, summary”, the “uptake of radiotracer on bone scan” value is listed as “striking decrease in uptake of radiotracer on bone scan”. Under setting [4], the bone lesions result is listed as “near complete resolution of bone lesions”. Besides, the “bone pain and total serum alkaline phosphatase (tALP) levels” value under setting [4] is “marked reduction in bone pain and total serum alkaline phosphatase (tALP) levels”. The measurable disease entry under setting [4] was “reduction in measurable disease”.
